Measured values taken from ChEMBL document CHEMBL3044568, “Synthesis, analgesic, anti-inflammatory, and in vitro antimicrobial activities of some novel quinazolin-4(3H)-one derivatives” (Med Chem Res, 2013).
≈ marks a conversion by molar mass, not a printed value.

Key:
Rattus norvegicus [1] = assay: Anti-inflammatory activity in Rattus norvegicus Wistar (rat) assessed as protection against carrageenan-induced paw edema at 10 mg/kg, po measured at 30 min by plethysmographic analysis (reference value: 4 +/- 0.28%); type: functional
Mus musculus [2] = assay: Analgesic activity in Mus musculus […] albino (mouse) at 10 mg/kg, po measured at 30 min by tail flick test (reference value: 4 +/- 0.72%)
Mus musculus [3] = assay: Analgesic activity in Mus musculus […] albino (mouse) at 20 mg/kg, po measured at 1 hr by tail flick test (reference value: 5 +/- 0.49%)
Mus musculus [4] = assay: Analgesic activity in Mus musculus […] albino (mouse) at 20 mg/kg, po measured at 30 min by tail flick test (reference value: 4 +/- 0.72%)
Mus musculus [5] = assay: Analgesic activity in Mus musculus […] albino (mouse) at 10 mg/kg, po measured at 1 hr by tail flick test (reference value: 5 +/- 0.49%)
Mus musculus [6] = assay: Analgesic activity in Mus musculus […] albino (mouse) at 10 mg/kg, po measured at 3 hr by tail flick test (reference value: 3 +/- 0.41%)
Aspergillus niger = assay: Antifungal activity against Aspergillus niger ATCC 9029 assessed as growth inhibition after 48 hr by agar streak dilution method; type: functional; details: ATCC 9029, 48 h
Staphylococcus aureus = assay: Antibacterial activity against Staphylococcus aureus ATCC 9144 assessed as growth inhibition after 24 hr by agar streak dilution method; type: functional; details: ATCC 9144, 24 h
Mus musculus [7] = assay: Analgesic activity in Mus musculus […] albino (mouse) at 20 mg/kg, po measured at 3 hr by tail flick test (reference value: 3 +/- 0.41%)
Rattus norvegicus [8] = assay: Anti-inflammatory activity in Rattus norvegicus Wistar (rat) assessed as protection against carrageenan-induced paw edema at 10 mg/kg, po measured at 2 hr by plethysmographic analysis (reference value: 5 +/- 0.41%); type: functional
Mus musculus [9] = assay: Analgesic activity in Mus musculus […] albino (mouse) at 20 mg/kg, po measured at 2 hr by tail flick test (reference value: 6 +/- 0.84%)
Rattus norvegicus [10] = assay: Ulcerogenecity in Rattus norvegicus Wistar albino (rat) stomach assessed as ulcer index administered 20 mg/kg, ip qd for 3 days measured on day 4 relative to aspirin; type: ADME, organism-based; set-up: dose 20 mg/kg, route intraperitoneal; details: in vivo, 72 h
Rattus norvegicus [11] = assay: Anti-inflammatory activity in Rattus norvegicus Wistar (rat) assessed as protection against carrageenan-induced paw edema at 20 mg/kg, po measured at 1 hr by plethysmographic analysis (reference value: 6 +/- 0.63%); type: functional
Rattus norvegicus [12] = assay: Ulcerogenecity in Rattus norvegicus Wistar albino (rat) stomach assessed as ulcer index administered 20 mg/kg, ip qd for 3 days measured on day 4 (reference value: 0.13 +/- 0.05 no unit); type: ADME, organism-based; set-up: dose 20 mg/kg, route intraperitoneal; details: in vivo, 72 h
Klebsiella pneumoniae = assay: Antibacterial activity against Klebsiella pneumoniae ATCC 11298 assessed as growth inhibition after 24 hr by agar streak dilution method; type: functional; details: ATCC 11298, 24 h
Rattus norvegicus [13] = assay: Ulcerogenecity in Rattus norvegicus Wistar albino (rat) stomach assessed as ulcer index administered 20 mg/kg, ip qd for 3 days measured on day 4 relative to diclofenac; type: ADME, organism-based; set-up: dose 20 mg/kg, route intraperitoneal; details: in vivo, 72 h
Escherichia coli = assay: Antibacterial activity against Escherichia coli ATCC 25922 assessed as growth inhibition after 24 hr by agar streak dilution method; type: functional; details: ATCC 25922, 24 h
Rattus norvegicus [14] = assay: Anti-inflammatory activity in Rattus norvegicus Wistar (rat) assessed as protection against carrageenan-induced paw edema at 20 mg/kg, po measured at 2 hr by plethysmographic analysis (reference value: 5 +/- 0.41%); type: functional
Pseudomonas aeruginosa = assay: Antibacterial activity against Pseudomonas aeruginosa […] assessed as growth inhibition after 24 hr by agar streak dilution method; type: functional
Mus musculus [15] = assay: Analgesic activity in Mus musculus […] albino (mouse) at 10 mg/kg, po measured at 2 hr by tail flick test (reference value: 6 +/- 0.84%)
Bacillus cereus = assay: Antibacterial activity against Bacillus cereus ATCC 11778 assessed as growth inhibition after 24 hr by agar streak dilution method; type: functional; details: ATCC 11778, 24 h
[16] = test system: Staphylococcus epidermidis; assay: Antibacterial activity against Staphylococcus epidermidis ATCC 155 assessed as growth inhibition after 24 hr by agar streak dilution method; type: functional; details: ATCC 155, 24 h
Rattus norvegicus [17] = assay: Anti-inflammatory activity in Rattus norvegicus Wistar (rat) assessed as protection against carrageenan-induced paw edema at 10 mg/kg, po measured at 3 hr by plethysmographic analysis (reference value: 4 +/- 0.75%); type: functional
Rattus norvegicus [18] = assay: Anti-inflammatory activity in Rattus norvegicus Wistar (rat) assessed as protection against carrageenan-induced paw edema at 20 mg/kg, po measured at 3 hr by plethysmographic analysis (reference value: 4 +/- 0.75%); type: functional
Rattus norvegicus [19] = assay: Anti-inflammatory activity in Rattus norvegicus Wistar (rat) assessed as protection against carrageenan-induced paw edema at 20 mg/kg, po measured at 30 min by plethysmographic analysis (reference value: 4 +/- 0.28%); type: functional
Rattus norvegicus [20] = assay: Anti-inflammatory activity in Rattus norvegicus Wistar (rat) assessed as protection against carrageenan-induced paw edema at 10 mg/kg, po measured at 1 hr by plethysmographic analysis (reference value: 6 +/- 0.63%); type: functional
Aspergillus fumigatus = assay: Antifungal activity against Aspergillus fumigatus ATCC 46645 assessed as growth inhibition after 48 hr by agar streak dilution method; type: functional; details: ATCC 46645, 48 h
Micrococcus luteus = assay: Antibacterial activity against Micrococcus luteus ATCC 4698 assessed as growth inhibition after 24 hr by agar streak dilution method; type: functional; details: ATCC 4698, 24 h
Rattus norvegicus [21] = assay: Ulcerogenecity in Rattus norvegicus Wistar albino (rat) stomach assessed as ulcer index administered 200 mg/kg, ip qd for 3 days measured on day 4 (reference value: 0.13 +/- 0.05 no unit); type: ADME, organism-based; set-up: dose 200 mg/kg, route intraperitoneal; details: in vivo, 72 h

Row | Compound | Activity (Rattus norvegicus [1]) [%] | Activity (Mus musculus [2]) [%] | Activity (Mus musculus [3]) [%] | Activity (Mus musculus [4]) [%] | Activity (Mus musculus [5]) [%] | Activity (Mus musculus [6]) [%] | MIC (Aspergillus niger) [µg/mL] | MIC (Staphylococcus aureus) [µg/mL] | Activity (Mus musculus [7]) [%] | Activity (Rattus norvegicus [8]) [%] | Activity (Mus musculus [9]) [%] | UI (Rattus norvegicus [10]) [%] | Activity (Rattus norvegicus [11]) [%] | UI (Rattus norvegicus [12]) [no unit] | MIC (Klebsiella pneumoniae) [µg/mL] | UI (Rattus norvegicus [13]) [%] | MIC (Escherichia coli) [µg/mL] | Activity (Rattus norvegicus [14]) [%] | MIC (Pseudomonas aeruginosa) [µg/mL] | Activity (Mus musculus [15]) [%] | further results
1 | COc1ccc(/C=N/NCC(=O)Nc2ccc(-n3c(C)nc4ccccc4c3=O)cc2)cc1 | 22 | 24 | 40 | 35 | 32 | 23 | 62.5 (≈ 142 µM) | 125 (≈ 283 µM) | 28 | 29 | 48 | 51 | 37 | 0.86 | 31.2 (≈ 70.8 µM) | 51 | 125 (≈ 283 µM) | 42 | 62.5 (≈ 142 µM) | 35 | MIC (Bacillus cereus): 62.5 µg/mL (≈ 142 µM); MIC [16]: 62.5 µg/mL (≈ 142 µM); Activity (Rattus norvegicus [17]): 19%; Activity (Rattus norvegicus [18]): 30%; Activity (Rattus norvegicus [19]): 31%; Activity (Rattus norvegicus [20]): 25%; MIC (Aspergillus fumigatus): 62.5 µg/mL (≈ 142 µM); MIC (Micrococcus luteus): 62.5 µg/mL (≈ 142 µM)
2 | Cc1nc2ccccc2c(=O)n1-c1ccc(NC(=O)CN/N=C/c2ccc(F)cc2)cc1 | 26 | 32 | 54 | 44 | 38 | 31 | 31.2 (≈ 72.8 µM) | 31.2 (≈ 72.8 µM) | 35 | 36 | 58 | 31 | 49 | 0.64 | 3.9 (≈ 9.08 µM) | 34 | 31.2 (≈ 72.8 µM) | 52 | 7.81 (≈ 18.2 µM) | 42 | MIC (Bacillus cereus): 7.81 µg/mL (≈ 18.2 µM); MIC [16]: 7.81 µg/mL (≈ 18.2 µM); Activity (Rattus norvegicus [17]): 29%; Activity (Rattus norvegicus [18]): 36%; Activity (Rattus norvegicus [19]): 37%; Activity (Rattus norvegicus [20]): 33%; MIC (Aspergillus fumigatus): 15.6 µg/mL (≈ 36.4 µM); MIC (Micrococcus luteus): 15.6 µg/mL (≈ 36.4 µM)
3 | CC(=O)Oc1ccccc1C(=O)O [ASPIRIN] | – | – | – | – | – | – | – | – | – | – | – | – | – | – | – | – | – | – | – | – | UI (Rattus norvegicus [21]): 1.79%
4 | Cc1nc2ccccc2c(=O)n1-c1ccc(NC(=O)CN/N=C\c2c[nH]c3ccccc23)cc1 | 20 | 19 | 35 | 30 | 25 | 18 | 31.2 (≈ 69.4 µM) | 62.5 (≈ 139 µM) | 20 | 29 | 41 | 31 | 36 | 0.72 | 15.6 (≈ 34.7 µM) | 34 | 62.5 (≈ 139 µM) | 41 | 15.6 (≈ 34.7 µM) | 29 | MIC (Bacillus cereus): 31.2 µg/mL (≈ 69.4 µM); MIC [16]: 31.2 µg/mL (≈ 69.4 µM); Activity (Rattus norvegicus [17]): 21%; Activity (Rattus norvegicus [18]): 32%; Activity (Rattus norvegicus [19]): 28%; Activity (Rattus norvegicus [20]): 23%; MIC (Aspergillus fumigatus): 62.5 µg/mL (≈ 139 µM); MIC (Micrococcus luteus): 31.2 µg/mL (≈ 69.4 µM)
5 | Cc1nc2ccccc2c(=O)n1-c1ccc(NC(=O)CN/N=C/c2ccc(Cl)cc2)cc1 | 31 | 36 | 58 | 50 | 45 | 35 | 15.6 (≈ 35 µM) | 31.2 (≈ 70.1 µM) | 40 | 43 | 64 | 31 | 52 | 0.59 | 7.81 (≈ 17.5 µM) | 34 | 31.2 (≈ 70.1 µM) | 59 | 15.6 (≈ 35 µM) | 48 | MIC (Bacillus cereus): 15.6 µg/mL (≈ 35 µM); MIC [16]: 15.6 µg/mL (≈ 35 µM); Activity (Rattus norvegicus [17]): 34%; Activity (Rattus norvegicus [18]): 42%; Activity (Rattus norvegicus [19]): 43%; Activity (Rattus norvegicus [20]): 37%; MIC (Aspergillus fumigatus): 7.81 µg/mL (≈ 17.5 µM); MIC (Micrococcus luteus): 7.81 µg/mL (≈ 17.5 µM)
